{"source": "BindingDB's records for doi:10.1016/j.bioorg.2015.10.003", "about": "(University of Technology Sydney, 2015)", "note": "pIC50, pKi: −log10 of the molar value.", "data": [{"molecular_target": "Polyphenol oxidase 1 [N65D,S176D,K211T,P277A,P406L] (Agaricus bisporus var. bisporus (strain H97 / ATCC MYA-4626 / FGSC 10389), UniProt Q00024, K211T/N65D/P277A/P406L/S176D)", "assay": "Enzymatic Activity Assay", "details": "pH 6.8", "experimental": "The mushroom tyrosinase inhibition activity of hydroxy naphthylchalcone compounds was measured using L-DOPA as substrate. The activity assay used 3 ml of reaction medium containing 0.5 mM L-DOPA in 50 mM Na2HPO4-NaH2PO4 buffer (pH 6.8). […] The substrate reaction progress curve was analyzed to obtain the reaction rate constants. The reaction was carried out at 30 °C and pH 6.8.", "values": [{"smiles": "O=C(/C=C/c1ccc([N+](=O)[O-])cc1O)c1cc2ccccc2cc1O", "note": "[(2E)-1-(3-hydroxynaphthalen-2-yl)-3-(2-hydroxy-4-nitrophenyl) prop-2-en-1-one (3b)]", "pIC50": 4.64, "pKi": 4.95}, {"smiles": "O=C(/C=C/c1ccc(O)c([N+](=O)[O-])c1)c1cc2ccccc2cc1O", "note": "[(2E)-1-(3-hydroxynaphthalen-2-yl)-3-(4-hydroxy-3-nitrophenyl) prop-2-en-1-one (4b)]", "pIC50": 4.59, "pKi": 4.92}, {"smiles": "O=C(/C=C/c1cc(O)ccc1O)c1cc2ccccc2cc1O", "note": "[(2E)-3-(2,5-dihydroxyphenyl)-1-(3-hydroxynaphthalen-2-yl) prop-2-en-1-one (1b)]", "pIC50": 4.69, "pKi": 4.97}, {"smiles": "O=C(/C=C/c1ccc(O)cc1O)c1cc2ccccc2cc1O", "note": "[(2E)-3-(2,4-dihydroxyphenyl)-1-(3-hydroxynaphthalen-2-yl) prop-2-en-1-one (2b)]", "pIC50": 4.84, "pKi": 5.35}, {"smiles": "O=C(/C=C/c1cc(O)cc(O)c1)c1cc2ccccc2cc1O", "note": "[(2E)-3-(3,5-dihydroxyphenyl)-1-(3-hydroxynaphthalen-2-yl)prop-2-en-1-one (5b)]", "pIC50": 4.98, "pKi": 5.42}]}]}
